Key:
barley = test: Herbicidal bioassay, barley (% necrosis); format: in vivo
How it was run: (§1)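 Lolium perenne, barley, peas and Chinese cabbage at 2-4 true leaf stage sprayed simultaneously with a Potter tower, compounds in DMSO at six concentrations (0.05% to 0.0001%). Phytotoxicity scored as % necrosis per EPPO PP1/135 at set intervals; five replicates per treatment and species; DMSO and water controls.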

peas = test: Herbicidal bioassay, peas (% necrosis); format: in vivo
How it was run: as §1

CC(CO)Oc1ccc(Oc2ccc(C(F)(F)F)cn2)cc1 (stereo not drawn) [Compound 27, 2-[4-[[5-(Trifluoromethyl)-2-pyridyl]oxy]phenoxy]propan-1-ol]
C (less than 50% necrosis): Sum of % necrosis in barley (barley; Dose 0.000001, Day 0) | Sum of % necrosis in barley (barley; Dose 0.000001, Day 3) | Sum of % necrosis in barley (barley; Dose 0.000001, Day 7) | Sum of % necrosis in barley (barley; Dose 0.000001, Day 10) | Sum of % necrosis in barley (barley; Dose 0.000001, Day 14) | Sum of % necrosis in barley (barley; Dose 0.000001, Day 21) | Sum of % necrosis in barley (barley; Dose 0.000005, Day 0) | Sum of % necrosis in barley (barley; Dose 0.000005, Day 3) | Sum of % necrosis in barley (barley; Dose 0.000005, Day 7) | Sum of % necrosis in barley (barley; Dose 0.000005, Day 10) | Sum of % necrosis in barley (barley; Dose 0.000005, Day 14) | Sum of % necrosis in barley (barley; Dose 0.000005, Day 21) | Sum of % necrosis in barley (barley; Dose 0.00001, Day 0) | Sum of % necrosis in barley (barley; Dose 0.00001, Day 3) | Sum of % necrosis in barley (barley; Dose 0.00001, Day 7) | Sum of % necrosis in barley (barley; Dose 0.00001, Day 10) | Sum of % necrosis in barley (barley; Dose 0.00001, Day 14) | Sum of % necrosis in barley (barley; Dose 0.00001, Day 21) | Sum of % necrosis in barley (barley; Dose 0.00005, Day 0) | Sum of % necrosis in barley (barley; Dose 0.00005, Day 3) | Sum of % necrosis in barley (barley; Dose 0.00005, Day 7) | Sum of % necrosis in barley (barley; Dose 0.00005, Day 10) | Sum of % necrosis in barley (barley; Dose 0.00005, Day 14) | Sum of % necrosis in barley (barley; Dose 0.00005, Day 21) | Sum of % necrosis in barley (barley; Dose 0.0001, Day 0) | Sum of % necrosis in barley (barley; Dose 0.0001, Day 3) | Sum of % necrosis in barley (barley; Dose 0.0001, Day 7) | Sum of % necrosis in barley (barley; Dose 0.0001, Day 10) | Sum of % necrosis in barley (barley; Dose 0.0001, Day 14) | Sum of % necrosis in barley (barley; Dose 0.0001, Day 21) | Sum of % necrosis in barley (barley; Dose 0.0005, Day 0) | Sum of % necrosis in barley (barley; Dose 0.0005, Day 3) | Sum of % necrosis in barley (barley; Dose 0.0005, Day 7) | Sum of % necrosis in barley (barley; Dose 0.0005, Day 10) | Sum of % necrosis in barley (barley; Dose 0.0005, Day 14) | Sum of % necrosis in barley (barley; Dose 0.0005, Day 21) | Sum of % necrosis in Peas (peas; Dose 0.000001, Day 0) | Sum of % necrosis in Peas (peas; Dose 0.000001, Day 1) | Sum of % necrosis in Peas (peas; Dose 0.000001, Day 3) | Sum of % necrosis in Peas (peas; Dose 0.000001, Day 7) | Sum of % necrosis in Peas (peas; Dose 0.000001, Day 10) | Sum of % necrosis in Peas (peas; Dose 0.000001, Day 14) | Sum of % necrosis in Peas (peas; Dose 0.000001, Day 21) | Sum of % necrosis in Peas (peas; Dose 0.000005, Day 0) | Sum of % necrosis in Peas (peas; Dose 0.000005, Day 1) | Sum of % necrosis in Peas (peas; Dose 0.000005, Day 3) | Sum of % necrosis in Peas (peas; Dose 0.000005, Day 7) | Sum of % necrosis in Peas (peas; Dose 0.000005, Day 10) | Sum of % necrosis in Peas (peas; Dose 0.000005, Day 14) | Sum of % necrosis in Peas (peas; Dose 0.000005, Day 21) | Sum of % necrosis in Peas (peas; Dose 0.00001, Day 0) | Sum of % necrosis in Peas (peas; Dose 0.00001, Day 1) | Sum of % necrosis in Peas (peas; Dose 0.00001, Day 3) | Sum of % necrosis in Peas (peas; Dose 0.00001, Day 7) | Sum of % necrosis in Peas (peas; Dose 0.00001, Day 10) | Sum of % necrosis in Peas (peas; Dose 0.00001, Day 14) | Sum of % necrosis in Peas (peas; Dose 0.00001, Day 21) | Sum of % necrosis in Peas (peas; Dose 0.00005, Day 0) | Sum of % necrosis in Peas (peas; Dose 0.00005, Day 1) | Sum of % necrosis in Peas (peas; Dose 0.00005, Day 3) | Sum of % necrosis in Peas (peas; Dose 0.00005, Day 7) | Sum of % necrosis in Peas (peas; Dose 0.00005, Day 10) | Sum of % necrosis in Peas (peas; Dose 0.00005, Day 14) | Sum of % necrosis in Peas (peas; Dose 0.00005, Day 21) | Sum of % necrosis in Peas (peas; Dose 0.0001, Day 0) | Sum of % necrosis in Peas (peas; Dose 0.0001, Day 1) | Sum of % necrosis in Peas (peas; Dose 0.0001, Day 3) | Sum of % necrosis in Peas (peas; Dose 0.0001, Day 7) | Sum of % necrosis in Peas (peas; Dose 0.0001, Day 10) | Sum of % necrosis in Peas (peas; Dose 0.0001, Day 14) | Sum of % necrosis in Peas (peas; Dose 0.0001, Day 21) | Sum of % necrosis in Peas (peas; Dose 0.0005, Day 0) | Sum of % necrosis in Peas (peas; Dose 0.0005, Day 1) | Sum of % necrosis in Peas (peas; Dose 0.0005, Day 3) | Sum of % necrosis in Peas (peas; Dose 0.0005, Day 7) | Sum of % necrosis in Peas (peas; Dose 0.0005, Day 10) | Sum of % necrosis in Peas (peas; Dose 0.0005, Day 14) | Sum of % necrosis in Peas (peas; Dose 0.0005, Day 21)
